Measurements published in patent US8426419B2, “Tyrosine kinase inhibitors containing a zinc binding moiety” (Curis, Inc., priority 2006, dated 2013).

How the values were obtained:
Lyn = Lyn (Homo sapiens, UniProt P07948); assay: Lyn assay (Table B); type: biochemical
[1] = target: T1, human PDGFR-beta (Arg561-Leu1106) (Homo sapiens, UniProt P09619); assay: HTScan tyrosine kinase assay, PDGFR-beta; type: biochemical; conditions: read-out: PDGFb IC50
T1 construct: fragment (Arg561-Leu1106); GST (N); His6 (N); thrombin cleavage site (N); purchased Cell Signaling Technologies; host or cells: baculovirus expression system
Experimental: (§1) The proteins are purified by one-step affinity chromatography using glutathione-agarose. An anti-phosphotyrosine monoclonal antibody, P-Tyr-100, is used to detect phosphorylation of biotinylated substrate peptides (Abl1 and Src, Biotin-Signal Transduction Protein (Tyr160); c-Kit, Biotinylated-KDR (Tyr996); PDGFR-β, Biotinylated-FLT3 (Tyr589)). […] Data are plotted using GraphPad Prism (v4.0a) and IC50's are calculated using a sigmoidal dose response curve fitting algorithm.
(§2) Each assay is setup as follows: 100 μl of 10 mM ATP is added to 1.25 ml 6 mM substrate peptide. […] The enzyme is immediately transferred from −80° C. to ice. The enzyme is allowed to thaw on ice. […] 25 μl of 2× ATP/substrate cocktail is added to 25 μl/well preincubated reaction cocktail/compound. The reaction plate is incubated at room temperature for 30 minutes. […] 100 μl/well primary antibody is added and the mixture is incubated at room temperature for 60 minutes. The plates are again washed three times with 200 μl/well PBS/T. Europium labeled anti-mouse IgG is diluted 1:500 in PBS/T with 1% BSA. 100 μl/well diluted antibody is added and the mixture is incubated at room temperature for 30 minutes. The plate is washed five times with 200 μl/well PBS/T. 100 μl/well DELFIA® Enhancement Solution is added and the mixture is incubated at room temperature for 5 minutes. 615 nm fluorescence emission is detected using an appropriate Time-Resolved Plate Reader.

Lck = Lck (Homo sapiens, UniProt P06239); assay: Lck assay (Table B); type: biochemical
[2] = target: T2, human c-Kit (Thr544-Val976) (Homo sapiens, UniProt P10721); assay: HTScan tyrosine kinase assay, c-Kit; type: biochemical
T2 construct: human c-Kit (Thr544-Val976); GST (N); purchased Cell Signaling Technologies; host or cells: baculovirus expression system
Experimental: as §1, §2

HDAC = HDAC fluorimetric assay kit (AK-500, Biomol), HeLa nuclear extract; type: biochemical
Experimental: HDAC inhibitors is screened using an HDAC fluorimetric assay kit (AK-500, Biomol, Plymouth Meeting, Pa.).
Each assay is setup as follows: Defrost all kit components and kept on ice until use. […] Prepare dilutions of Trichostatin A (TSA, positive control) and tested compounds in assay buffer (5× of final concentration). Dilute Fluor de Lys™ Substrate in assay buffer to 100 uM (50 fold=2× final). Dilute Fluor de Lys™ developer concentrate 20-fold (e.g. 50 μl plus 950 μl Assay Buffer) in cold assay buffer. Second, dilute the 0.2 mM Trichostatin A 100-fold in the 1× Developer (e.g. 10 μl in 1 ml; final Trichostatin A concentration in the 1× Developer=2 μM; final concentration after addition to HDAC/Substrate reaction=1 μM). Add Assay buffer, dilute trichostatin A or test inhibitor to appropriate wells of the microtiter plate. Add diluted HeLa extract or other HDAC sample to all wells except for negative controls.

[3] = target: T3, full length human Src (Met1-Leu536) (Homo sapiens, UniProt P12931); assay: HTScan tyrosine kinase assay, Src; type: biochemical
T3 construct: full length human Src (Met1-Leu536); GST (N); purchased Cell Signaling Technologies; host or cells: baculovirus expression system
Experimental: as §1, §2

[4] = target: T4, human Abl1 (Pro118-Ser553) (Homo sapiens, UniProt P00519); assay: HTScan tyrosine kinase assay, Abl1; type: biochemical; conditions: read-out: ABL IC50
T4 construct: human Abl1 (Pro118-Ser553); GST (N); purchased Cell Signaling Technologies; host or cells: baculovirus expression system
T4 sequence (P00519 118-553): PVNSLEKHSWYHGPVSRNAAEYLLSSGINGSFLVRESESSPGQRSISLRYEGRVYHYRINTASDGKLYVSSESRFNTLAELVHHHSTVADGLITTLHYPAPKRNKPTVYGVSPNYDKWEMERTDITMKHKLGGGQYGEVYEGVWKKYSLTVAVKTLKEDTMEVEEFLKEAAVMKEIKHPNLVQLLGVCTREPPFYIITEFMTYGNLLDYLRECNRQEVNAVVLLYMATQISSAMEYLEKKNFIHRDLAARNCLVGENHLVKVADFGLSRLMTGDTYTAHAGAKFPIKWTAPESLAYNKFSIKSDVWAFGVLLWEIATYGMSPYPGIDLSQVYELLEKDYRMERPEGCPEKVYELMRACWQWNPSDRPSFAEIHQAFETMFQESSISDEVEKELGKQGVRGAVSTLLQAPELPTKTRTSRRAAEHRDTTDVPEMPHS
Experimental: as §1, §2

T3 sequence (P12931 whole entry): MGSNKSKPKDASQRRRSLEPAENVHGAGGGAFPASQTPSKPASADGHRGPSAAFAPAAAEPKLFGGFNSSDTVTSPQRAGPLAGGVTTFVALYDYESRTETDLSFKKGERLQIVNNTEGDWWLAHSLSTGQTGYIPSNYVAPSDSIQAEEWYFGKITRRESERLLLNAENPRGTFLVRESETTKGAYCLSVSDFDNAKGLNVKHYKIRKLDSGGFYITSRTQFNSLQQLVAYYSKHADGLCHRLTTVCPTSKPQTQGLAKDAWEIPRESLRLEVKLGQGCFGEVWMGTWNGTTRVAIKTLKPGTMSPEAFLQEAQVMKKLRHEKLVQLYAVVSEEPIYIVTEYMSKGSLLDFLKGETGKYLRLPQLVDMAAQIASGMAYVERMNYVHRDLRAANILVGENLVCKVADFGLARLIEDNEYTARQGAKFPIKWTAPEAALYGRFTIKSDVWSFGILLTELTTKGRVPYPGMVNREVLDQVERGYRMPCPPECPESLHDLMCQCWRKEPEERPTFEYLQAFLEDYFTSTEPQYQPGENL
Chain of Lyn (P07948 whole entry, species assumed): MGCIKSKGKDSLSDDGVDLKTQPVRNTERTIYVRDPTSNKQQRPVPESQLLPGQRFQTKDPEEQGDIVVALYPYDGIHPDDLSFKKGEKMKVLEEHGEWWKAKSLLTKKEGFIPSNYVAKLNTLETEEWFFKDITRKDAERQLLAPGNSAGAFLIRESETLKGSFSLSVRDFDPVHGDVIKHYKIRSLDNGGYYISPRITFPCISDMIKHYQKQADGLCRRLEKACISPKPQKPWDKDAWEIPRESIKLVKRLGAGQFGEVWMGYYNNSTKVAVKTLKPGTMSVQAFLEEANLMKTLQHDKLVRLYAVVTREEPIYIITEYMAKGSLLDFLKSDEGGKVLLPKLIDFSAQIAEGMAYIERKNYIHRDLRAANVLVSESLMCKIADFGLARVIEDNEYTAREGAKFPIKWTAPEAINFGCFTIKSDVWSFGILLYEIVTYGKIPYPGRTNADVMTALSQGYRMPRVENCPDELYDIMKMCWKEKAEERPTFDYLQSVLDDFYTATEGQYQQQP
Chain of Lck (P06239 whole entry, species assumed): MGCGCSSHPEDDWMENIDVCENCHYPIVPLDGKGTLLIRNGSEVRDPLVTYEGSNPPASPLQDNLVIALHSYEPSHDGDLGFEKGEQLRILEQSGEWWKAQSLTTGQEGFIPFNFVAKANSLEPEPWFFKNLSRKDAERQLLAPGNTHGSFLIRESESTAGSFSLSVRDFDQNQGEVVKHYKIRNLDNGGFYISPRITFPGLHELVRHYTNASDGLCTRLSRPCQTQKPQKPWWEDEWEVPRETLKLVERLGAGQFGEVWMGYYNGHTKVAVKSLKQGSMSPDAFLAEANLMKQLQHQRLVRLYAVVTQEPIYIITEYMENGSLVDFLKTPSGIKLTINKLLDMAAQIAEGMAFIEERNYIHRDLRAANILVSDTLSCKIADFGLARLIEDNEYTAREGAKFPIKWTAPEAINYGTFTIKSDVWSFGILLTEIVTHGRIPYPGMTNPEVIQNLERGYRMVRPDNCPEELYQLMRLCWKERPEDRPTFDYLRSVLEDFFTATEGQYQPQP
T1 sequence (P09619 561-1106): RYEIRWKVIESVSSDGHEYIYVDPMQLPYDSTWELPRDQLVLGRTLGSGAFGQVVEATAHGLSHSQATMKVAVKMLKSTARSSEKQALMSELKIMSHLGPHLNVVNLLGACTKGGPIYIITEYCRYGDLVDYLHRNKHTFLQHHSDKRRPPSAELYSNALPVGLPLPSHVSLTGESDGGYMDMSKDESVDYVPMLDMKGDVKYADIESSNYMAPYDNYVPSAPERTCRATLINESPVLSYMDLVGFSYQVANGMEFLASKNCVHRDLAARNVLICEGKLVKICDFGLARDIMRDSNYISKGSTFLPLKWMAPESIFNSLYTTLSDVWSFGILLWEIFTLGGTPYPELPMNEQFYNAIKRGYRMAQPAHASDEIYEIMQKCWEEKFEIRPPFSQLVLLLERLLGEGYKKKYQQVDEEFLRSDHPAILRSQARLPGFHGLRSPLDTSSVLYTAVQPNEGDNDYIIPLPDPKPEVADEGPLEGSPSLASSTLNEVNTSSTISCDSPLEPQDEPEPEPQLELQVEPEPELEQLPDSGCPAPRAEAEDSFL
T2 sequence (P10721 544-976): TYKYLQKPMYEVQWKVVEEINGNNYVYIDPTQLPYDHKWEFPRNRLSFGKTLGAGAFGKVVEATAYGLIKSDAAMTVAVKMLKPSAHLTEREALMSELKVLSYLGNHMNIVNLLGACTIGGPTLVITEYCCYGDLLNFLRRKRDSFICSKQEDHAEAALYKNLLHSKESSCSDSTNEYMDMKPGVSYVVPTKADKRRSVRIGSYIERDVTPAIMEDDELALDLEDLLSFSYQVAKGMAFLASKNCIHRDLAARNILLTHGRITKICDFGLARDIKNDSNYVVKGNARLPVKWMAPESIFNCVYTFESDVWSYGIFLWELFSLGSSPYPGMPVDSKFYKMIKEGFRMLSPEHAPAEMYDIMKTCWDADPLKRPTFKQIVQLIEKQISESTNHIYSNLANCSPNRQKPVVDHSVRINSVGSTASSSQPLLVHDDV

IC50 (Lyn) [µM] | IC50 [1] [µM] | IC50 (Lck) [µM] | IC50 [2] [µM] | IC50 (HDAC) [µM] | IC50 [3] [µM] | IC50 [4] [µM] | melting point | Structure (SMILES)
< 0.1 | < 0.1 | < 0.1 | < 0.1 | < 0.1 | < 0.1 | < 0.1 |  | Cc1nc(NCCNCCCCCC(=O)NO)cc(Nc2ncc(C(=O)Nc3c(C)cccc3Cl)s2)n1 [Compound 11, N-(2-chloro-6-methylphenyl)-2-(6-(2-(6-(hydroxyamino)-6-oxohexylamino)ethylamino)-2-methylpyrimidin-4-ylamino)thiazole-5-carboxamide]
 |  |  |  | 1 to 10 | < 0.1 | < 0.1 |  | Cc1nc(Nc2ncc(C(=O)Nc3c(C)cccc3Cl)s2)cc(N2CCN(CCCC(=O)NO)CC2)n1 [Compound 3, N-(2-chloro-6-methylphenyl)-2-(6-(4-(4-(hydroxyamino)-4-oxobutyl)piperazin-1-yl)-2-methylpyrimidin-4-ylamino)thiazole-5-carboxamide]
< 0.1 | < 0.1 | < 0.1 | < 0.1 | < 0.1 | < 0.1 | < 0.1 |  | Cc1nc(NCCCCCC(=O)NO)cc(Nc2ncc(C(=O)Nc3c(C)cccc3Cl)s2)n1 [Compound 23, N-(2-chloro-6-methylphenyl)-2-(6-(6-(hydroxyamino)-6-oxohexylamino)-2-methylpyrimidin-4-ylamino)thiazole-5-carboxamide]
 | < 0.1 |  |  | 1 to 10 | < 0.1 | < 0.1 |  | Cc1nc(Nc2ncc(C(=O)Nc3c(C)cccc3Cl)s2)cc(N2CCN(CC(=O)NO)CC2)n1 [Compound 1, N-(2-chloro-6-methylphenyl)-2-(6-(4-(2-(hydroxyamino)-2-oxoethyl)piperazin-1-yl)-2-methylpyrimidin-4-ylamino)thiazole-5-carboxamide]
 |  |  |  | > 10 | 0.1 to 1 | 0.1 to 1 |  | Cc1nc(N)cc(N(CC(=O)NO)c2ncc(C(=O)Nc3c(C)cccc3Cl)s2)n1 [Compound 30]
< 0.1 | < 0.1 |  | < 0.1 | 0.1 to 1 | < 0.1 | < 0.1 |  | Cc1nc(Nc2ncc(C(=O)Nc3c(C)cccc3Cl)s2)cc(N2CCN(CCCCCCC(=O)NO)CC2)n1 [Compound 6, N-(2-chloro-6-methylphenyl)-2-(6-(4-(7-(hydroxyamino)-7-oxoheptyl)piperazin-1-yl)-2-methylpyrimidin-4-ylamino)thiazole-5-carboxamide]
 | < 0.1 |  |  | 0.1 to 1 | < 0.1 | < 0.1 |  | Cc1nc(Nc2ncc(C(=O)Nc3c(C)cccc3Cl)s2)cc(N2CCN(CCCCC(=O)NO)CC2)n1 [Compound 4, N-(2-chloro-6-methylphenyl)-2-(6-(4-(5-(hydroxyamino)-5-oxopentyl)piperazin-1-yl)-2-methylpyrimidin-4-ylamino)thiazole-5-carboxamide]
 | < 0.1 |  |  | 1 to 10 | < 0.1 | < 0.1 |  | Cc1nc(Nc2ncc(C(=O)Nc3c(C)cccc3Cl)s2)cc(N2CCN(CCC(=O)NO)CC2)n1 [Compound 2, N-(2-Chloro-6-methylphenyl)-2-(6-(4-(3-(hydroxyamino)-3-oxopropyl)piperazin-1-yl)-2-methylpyrimidin-4-ylamino)thiazole-5-carboxamide]
< 0.1 | < 0.1 |  | < 0.1 | < 0.1 | < 0.1 | < 0.1 |  | Cc1nc(Nc2ncc(C(=O)Nc3c(C)cccc3Cl)s2)cc(N2CCN(CCCCCC(=O)NO)CC2)n1 [Compound 5, N-(2-chloro-6-methylphenyl)-2-(6-(4-(6-(hydroxyamino)-6-oxohexyl)piperazin-1-yl)-2-methylpyrimidin-4-ylamino)thiazole-5-carboxamide]
 |  |  |  | > 10 | < 0.1 | < 0.1 |  | Cc1nc(NCCNCC(=O)NO)cc(Nc2ncc(C(=O)Nc3c(C)cccc3Cl)s2)n1 [Compound 7, N-(2-chloro-6-methylphenyl)-2-(6-(2-(2-(hydroxyamino)-2-oxoethylamino)ethylamino)-2-methylpyrimidin-4-ylamino)thiazole-5-carboxamide]
< 0.1 | < 0.1 | < 0.1 | < 0.1 | < 0.1 | < 0.1 | < 0.1 | 150.7 °C (dec.) | Cc1nc(NCCCCCCC(=O)NO)cc(Nc2ncc(C(=O)Nc3c(C)cccc3Cl)s2)n1 [Compound 24, N-(2-chloro-6-methylphenyl)-2-(6-(7-(hydroxyamino)-7-oxoheptylamino)-2-methylpyrimidin-4-ylamino)thiazole-5-carboxamide]
